Measurements published in PubChem BioAssay AID328 (DTP/NCI, 2004).
Where “and” joins values, the source holds several entries; their conditions need not be identical. Equal entries are not always repeated. Toxic doses and inconclusive results are not listed.

Tested on: BDF1 mice, P388 leukemia ip, median survival T/C
Assay: NCI In Vivo Anticancer Drug Screen. Data for tumor model P388 Leukemia (intraperitoneal) in B6D2F1 (BDF1) mice
Details: endpoint: median survival time, higher = longer survival
Outline: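 Reported as T/C, where T is the survival measurement in dosed animals and C the same measurement in vehicle controls.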

[1] = dose: 50.0 mg/kg/injection, schedule: Q01DX009 (ip), vehicle: saline with Tween-80
[2] = dose: 100.0 mg/kg/injection, schedule: Q01DX009 (ip), vehicle: saline with Tween-80
[3] = dose: 200.0 mg/kg/injection, schedule: Q01DX009 (ip), vehicle: saline with Tween-80
[4] = dose: 100.0 mg/kg/injection, schedule: Q04DX003 (ip), vehicle: saline
[5] = dose: 200.0 mg/kg/injection, schedule: Q04DX003 (ip), vehicle: saline
[6] = dose: 400.0 mg/kg/injection, schedule: Q04DX003 (ip), vehicle: saline
[7] = dose: 100.0 mg/kg/injection, schedule: Q01DX009 (ip), vehicle: saline
[8] = dose: 200.0 mg/kg/injection, schedule: Q01DX009 (ip), vehicle: saline
[9] = dose: 50.0 mg/kg/injection, schedule: Q04DX003 (ip), vehicle: saline with Tween-80
[10] = dose: 100.0 mg/kg/injection, schedule: Q04DX003 (ip), vehicle: saline with Tween-80
[11] = dose: 200.0 mg/kg/injection, schedule: Q04DX003 (ip), vehicle: saline with Tween-80
[12] = dose: 400.0 mg/kg/injection, schedule: Q04DX003 (ip), vehicle: saline with Tween-80
[13] = dose: 25.0 mg/kg/injection, schedule: Q04DX003 (ip), vehicle: saline with Tween-80
[14] = dose: 50.0 mg/kg/injection, schedule: Q01DX009 (ip), vehicle: saline
[15] = dose: 50.0 mg/kg/injection, schedule: Q04DX003 (ip), vehicle: saline

With `C#CC1(O)CCC2C3CCc4cc(OC)ccc4C3CCC21C` (stereo not given) the T/C (dose: 40.0 mg/kg/injection, schedule: Q01DX009 (sc), vehicle: saline with Tween-80) was 100 % of control, the T/C (dose: 80.0 mg/kg/injection, schedule: Q01DX009 (sc), vehicle: saline with Tween-80) was 100 % of control and the T/C (dose: 100.0 mg/kg/injection, schedule: Q04DX003 (sc), vehicle: saline with Tween-80) was 88 % of control. The T/C (dose: 160.0 mg/kg/injection, schedule: Q01DX009 (sc), vehicle: saline with Tween-80) was 100 % of control, the T/C (dose: 200.0 mg/kg/injection, schedule: Q04DX003 (sc), vehicle: saline with Tween-80) was 94 % of control and the T/C (dose: 400.0 mg/kg/injection, schedule: Q04DX003 (sc), vehicle: saline with Tween-80) was 88 % of control.
For `O=C(Nc1ccc(Cc2ccc(NC(=O)Nc3nc4ccccc4s3)cc2)cc1)Nc1nc2ccccc2s1`, the T/C [1] was 94 % of control, the T/C [2] was 89 % of control and the T/C [3] was 100 % of control.
`CN(C)c1cc(F)c(C=O)cc1[N+](=O)[O-]` was tested, and the T/C [4] was 95 % of control, the T/C [5] was 100 % of control and the T/C [6] was 104 % of control.
With `COc1cc2cc(-c3cc(OC)c(OC)c(OC)c3)c3c(c2cc1OC)CNC3=O` the T/C [7] was 110 % of control, the T/C [4] was 101 % of control and the T/C [8] was 112 % of control. For the same molecule, the T/C [5] was 108 % of control, the T/C (dose: 400.0 mg/kg/injection, schedule: Q01DX009 (ip), vehicle: saline) was 91 % of control and the T/C [6] was 100 % of control.
`NC(=O)c1cc(Cl)nc2nc(Cl)nc(N)c12` was tested, and the T/C [9] was 105 % of control, the T/C [10] was 104 % of control and 109 % of control and the T/C [11] was 116 % of control and 117 % of control. The T/C [12] was 116 % of control and 122 % of control.
In the case of `O=C1/C(=C\c2ccc(Cl)cc2)SC(=S)N1c1ccccc1`, the T/C (dose: 37.5 mg/kg/injection, schedule: Q01DX009 (ip), vehicle: saline with Tween-80) is reported as 88 % of control, the T/C (dose: 75.0 mg/kg/injection, schedule: Q01DX009 (ip), vehicle: saline with Tween-80) is reported as 97 % of control and the T/C (dose: 150.0 mg/kg/injection, schedule: Q01DX009 (ip), vehicle: saline with Tween-80) is reported as 108 % of control.
In the case of `CN=NNc1ccccc1`, the T/C (dose: 66.0 mg/kg/injection, schedule: Q04DX003 (ip), vehicle: saline with Tween-80) is reported as 120 % of control, the T/C (dose: 75.0 mg/kg/injection, schedule: Q01DX009 (ip), vehicle: other) is reported as 118 % of control and the T/C (dose: 75.0 mg/kg/injection, schedule: Q04DX003 (ip), vehicle: saline with Tween-80) is reported as 120 % of control. For the same molecule, the T/C (dose: 150.0 mg/kg/injection, schedule: Q04DX003 (ip), vehicle: saline with Tween-80) was 100 % of control, the T/C (dose: 225.0 mg/kg/injection, schedule: Q04DX003 (ip), vehicle: saline with Tween-80) was 95 % of control and the T/C (dose: 300.0 mg/kg/injection, schedule: Q04DX003 (ip), vehicle: saline with Tween-80) was 100 % of control.
In the case of `COc1ccc(C2=C(c3ccccc3)C(c3ccccc3)=C(c3ccc(OC)cc3)C2=O)cc1`, the T/C [1] is reported as 103 % of control, the T/C [2] is reported as 89 % of control and the T/C [3] is reported as 99 % of control. The T/C (dose: 400.0 mg/kg/injection, schedule: Q01DX009 (ip), vehicle: saline with Tween-80) was 94 % of control.
With `CCCOc1cc([N+](=O)[O-])cc([N+](=O)[O-])c1` the T/C (dose: 100.0 mg/kg/injection, schedule: Q01DX001 (ip), vehicle: saline with Tween-80) was 104 % of control and the T/C (dose: 200.0 mg/kg/injection, schedule: Q01DX001 (ip), vehicle: saline with Tween-80) was 94 % of control.
With `N=[N+]=CC(=O)CC(N)C(=O)O` (stereo not given) the T/C (dose: 100.0 mg/kg/injection, schedule: Q01DX001 (ip), vehicle: saline sonified) was 95 % of control, the T/C (dose: 200.0 mg/kg/injection, schedule: Q01DX001 (ip), vehicle: saline sonified) was 86 % of control and the T/C (dose: 400.0 mg/kg/injection, schedule: Q01DX001 (ip), vehicle: saline sonified) was 95 % of control.
`CCC(=O)NC1=CC(=O)c2ccccc2C1=O` was tested, and the T/C (dose: 12.5 mg/kg/injection, schedule: Q01DX009 (ip), vehicle: Klucel (hydroxypropylcellulose) (HPC)) was 109 % of control, the T/C (dose: 25.0 mg/kg/injection, schedule: Q01DX009 (ip), vehicle: Klucel (hydroxypropylcellulose) (HPC)) was 109 % of control and the T/C (dose: 50.0 mg/kg/injection, schedule: Q01DX009 (ip), vehicle: Klucel (hydroxypropylcellulose) (HPC)) was 122 % of control.
With `Cc1cc(-c2ccccc2)[s+]s1` the T/C (dose: 25.0 mg/kg/injection, schedule: Q01DX009 (ip), vehicle: saline with Tween-80) was 122 % of control, the T/C [1] was 113 % of control and the T/C [9] was 109 % of control. The T/C [2] was 117 % of control, the T/C [11] was 117 % of control and the T/C [12] was 118 % of control.
`CN=C(N)c1ccc(N=C(N)c2ccc(N=C(N)c3ccc(NC(=O)Nc4cccc(NC(=O)Nc5ccc(C(N)=Nc6ccc(C(N)=Nc7ccc(C(N)=NC)cc7)cc6)cc5)c4)cc3)cc2)cc1` was tested, and the T/C (dose: 0.8 mg/kg/injection, schedule: Q01DX009 (ip), vehicle: saline with Tween-80) was 119 % of control, the T/C (dose: 3.0 mg/kg/injection, schedule: Q01DX009 (ip), vehicle: saline with Tween-80) was 162 % of control and the T/C (dose: 4.5 mg/kg/injection, schedule: Q04DX003 (ip), vehicle: saline with Tween-80) was 150 % of control. The T/C (dose: 5.0 mg/kg/injection, schedule: Q01DX009 (ip), vehicle: saline with Tween-80) was 175 % of control and 195 % of control, the T/C (dose: 7.0 mg/kg/injection, schedule: Q04DX003 (ip), vehicle: saline with Tween-80) was 150 % of control and the T/C (dose: 8.0 mg/kg/injection, schedule: Q01DX009 (ip), vehicle: saline with Tween-80) was 212 % of control. For the same molecule, the T/C (dose: 11.0 mg/kg/injection, schedule: Q04DX003 (ip), vehicle: saline with Tween-80) was 154 % of control, the T/C (dose: 12.0 mg/kg/injection, schedule: Q01DX009 (ip), vehicle: saline with Tween-80) was 168 % of control and 170 % of control and the T/C (dose: 17.0 mg/kg/injection, schedule: Q04DX003 (ip), vehicle: saline with Tween-80) was 170 % of control and 179 % of control. The T/C (dose: 18.0 mg/kg/injection, schedule: Q01DX009 (ip), vehicle: saline with Tween-80) was 240 % of control and 192 % of control, the T/C [13] was 200 % of control and the T/C (dose: 27.0 mg/kg/injection, schedule: Q01DX009 (ip), vehicle: saline with Tween-80) was 200 % of control. For the same molecule, the T/C (dose: 37.0 mg/kg/injection, schedule: Q01DX009 (ip), vehicle: saline with Tween-80) was 100 % of control, the T/C (dose: 37.0 mg/kg/injection, schedule: Q04DX003 (ip), vehicle: saline with Tween-80) was 166 % of control and 191 % of control and the T/C (dose: 37.5 mg/kg/injection, schedule: Q04DX003 (ip), vehicle: saline with Tween-80) was 181 % of control. The T/C (dose: 55.0 mg/kg/injection, schedule: Q04DX003 (ip), vehicle: saline with Tween-80) was 158 % of control and 195 % of control.
For `CCB1OCC2OB(CC)OC2C2OB(CC)OC2CO1` (stereo not given), the T/C [14] was 100 % of control, the T/C [7] was 97 % of control and the T/C [8] was 93 % of control.
With `CCN(CC)C(=O)COc1cc2c(O)c3c(O)c(C)c4c(c13)C(=O)C(C)(OC=CC(OC)C(C)C(OC(C)=O)C(C)C(O)C(C)C(O)C(C)C=CC=C(C)C(=O)N2)O4` (stereo not given) the T/C [14] was 109 % of control, the T/C [7] was 109 % of control and the T/C [8] was 123 % of control.
In the case of `CN1C(=O)C23CC4=CC=CC(O)C4N2C(=O)C1(CO)SS3` (stereo not given), the T/C (dose: 0.19 mg/kg/injection, schedule: Q01DX009 (ip), vehicle: saline with Tween-80) is reported as 100 % of control, the T/C (dose: 0.38 mg/kg/injection, schedule: Q01DX009 (ip), vehicle: saline with Tween-80) is reported as 100 % of control and the T/C (dose: 0.75 mg/kg/injection, schedule: Q01DX009 (ip), vehicle: saline with Tween-80) is reported as 108 % of control and 109 % of control.
In the case of `O=C(Nc1ccc(Cl)c(C(F)(F)F)c1)Nc1ccc(Oc2ccc(Cl)cc2)cc1S(=O)(=O)O`, the T/C [15] is reported as 100 % of control, the T/C [4] is reported as 95 % of control and the T/C [5] is reported as 95 % of control.
With `CCCCN(CCC#N)CCCC` the T/C [13] was 100 % of control, the T/C [9] was 100 % of control and the T/C [10] was 100 % of control.
In the case of `CCc1c2cc(OC)c(OC)cc2cc2c3cc(OC)c(OC)cc3cc[n+]12` (tested in a mixture with another compound), the T/C [15] is reported as 150 % of control, the T/C (dose: 75.0 mg/kg/injection, schedule: Q04DX003 (ip), vehicle: saline) is reported as 150 % of control and the T/C [4] is reported as 166 % of control. The T/C (dose: 150.0 mg/kg/injection, schedule: Q04DX003 (ip), vehicle: saline) was 158 % of control.
In the case of `O=C(NC(CO)C(=O)OCc1ccccc1)OCc1ccccc1` (stereo not given), the T/C (dose: 100.0 mg/kg/injection, schedule: Q04DX003 (ip), vehicle: Klucel (hydroxypropylcellulose) (HPC)) is reported as 95 % of control, the T/C [10] is reported as 100 % of control and the T/C (dose: 200.0 mg/kg/injection, schedule: Q04DX003 (ip), vehicle: Klucel (hydroxypropylcellulose) (HPC)) is reported as 87 % of control. For the same molecule, the T/C [11] was 100 % of control, the T/C (dose: 400.0 mg/kg/injection, schedule: Q04DX003 (ip), vehicle: Klucel (hydroxypropylcellulose) (HPC)) was 91 % of control and the T/C [12] was 100 % of control.
